Key:
[1] = test system: Caco-2 monolayers; assay: t10-CLA-induced loss of TEER in Caco-2 monolayers; type: cell-based, human; conditions: t10-CLA 50 μM control = 100; μg TQ equivalents/mL: Thymoquinone 5.0, NS8 0.11, NS9 0.99, NS10 0.012, NSSpent#2 0.0005; NSSpent#1 5 μg/mL; listed as TQ
Text: The protocol for growing and differentiation the human Caco-2 colon andenocarcinoma cells was a modification of Protocol 3 as described by Yamashita et al. [[…]., and Furuyama, Y. 2002) New and better protocols for a short-term Caco-2 cell culture system, J Pharm Sci 91, 669-679]. Caco-2 Human Colon Adenocarcinoma cells were obtained from ATCC (Rockville, Md.; catalog #HTB-37) and maintained in a growth media: DMEM (Dulbecco's Modified Eagles Medium 1×) containing L-glutamine, glucose; Cellgro catalog #35-010CV with the following additions: (1) Penicillin (5,000 IU/mL)/Streptomycin (5,000 μg/mL) Cellgro catalog #30-001C1, (2) 10% FBS-Fetal Bovine Serum, Characterized; Hyclone catalog #SH30071.3, and (3) 1% NEAA-Non Essential Amino Acids; Cellgro catalog #25-025-CI; cells were cultured at 37 C in a humidified air-5% CO2 atmosphere in T175 flasks. BIOCOAT^R HTS Caco-2 Assay System kits (Becton Dickinson, N.J.; catalog #354801) consisting of 24-well fibrillar collagen coated inserts and feeder trays were used in all experiments and plated as follows. Media was removed from the T175 flasks and cells were washed with 10 mLs PBS (phosphate buffered saline 1× without Ca^++, without Mg^++; Cellgro #25-053-CI). […]

[2] = test system: LPS-stimulated macrophages; conditions: published results, El-Mahmoudy 2002; cited from earlier work
[3] = test system: adiponectin secretion in 3T3-L1 adipocytes; assay: Adiponectin secretion in t10-CLA-stimulated 3T3-L1 adipocytes; type: cell-based, murine; conditions: t10-CLA 50 μM control = 100; μg TQ equivalents/mL: Thymoquinone 5.0, NS8 0.11, NS9 0.99, NS10 0.012, NSSpent#2 0.0005; NSSpent#1 5 μg/mL; listed as TQ
Protocol: The 3T3-L1 murine fibroblast model as used in Example 4 was used in this experiments. Test materials were added four hours prior to the addition of t10-CLA at a concentration of 50 μM. Following overnight incubation, the supernatant media were sampled for determination of IL-6 and adiponectin. The adiponectin secreted into the medium was quantified using the Mouse Adiponectin Quantikine® Immunoassay kit with no modifications (R&D Systems, Minneapolis, Minn.). […] Test materials and were assayed in duplicate, while solvent controls were replicated eight times. IL-6 and adiponectin secretion were represented relative to the IL-6 and adiponectin secretion of the t10-CLA only controls as the IL-6 and adiponectin index and differences among the means were analyzed by the student's t-test assuming a five percent probability of a type I error (Excel; Microsoft, Redmond, Wash.).

[4] = test system: 3T3-L1 adipocytes; assay: Lipolysis (glycerol assay) in 3T3-L1 adipocytes; type: cell-based, murine; conditions: forskolin 82 μg/mL, test materials 5 μg/mL (FIG. 9)
Protocol: Culture and treatment of 3T3-L1 adipocytes and C2C12 myocytes was as described in Example 5. Concentrations of the forskolin positive control and test materials are listed in FIG. 9 for adipocytes and FIG. 10 for myocytes. Free fatty acid release from 3T3-L1 adipocytes or C2C12 myocytes was quantified by measuring glycerol secretion into the medium. Glycerol was measured spectrophotometrically using the Free Glycerol Determination Kit ([…], Sigma) and an EL 312e Microplate BIO-KINETICS spectrophotometer (BioTek, Winooski, Vt.). Glycerol release from adipocytes and myocytes was expressed, respectively, as the percent increase in free fatty acid secretion (FIG. 9) and relative glycerol content (glycerol index FIG. 10) ±95% confidence intervals of eight observations for one of three representative experiments.

For `CC1=CC(=O)C(C(C)C)=CC1=O` [Thymoquinone, thymoquinone], the “Relative Loss of TEER” value [1] is listed as “inhibited loss of TEER”, the “IC50 for NO inhibition in LPS-stimulated macrophages” value [2] is listed as 1.4 to 2.8 mg/L and the “Adiponectin Index” value [3] is listed as “attenuated t10-CLA-stimulated decrease of adiponectin secretion”. The “free fatty acid release in adipocytes” value [4] was “induced free fatty acid release”.

— patent US9180155B2, “Compositions from Nigella sativa” (Bio Nexus, Ltd, priority 2013, dated 2015)
